In patent US20070155730A1, “Benzodiazepine And Benzopiperazine Analog Inhibitors Of Histone Deacetylase” (METHYLGENE, INC., priority 2005, published 2007):

Target: histone deacetylase (HDAC)
Experiment: Inhibition of Histone Deacetylase Enzymatic Activity
Format: biochemical
Conditions: substrate Boc-Lys(Ac)-AMC, Fluor-de-Lys developer, 37° C., 20 min; against one or more of HDAC-1 to HDAC-11, SirT1 to SirT7 (isoform not given); read-out: HDAC Inhibitory Activity (IC50)
Protocol: The following protocol is used to assay the compounds of the invention. In the assay, the buffer used is 25 mM HEPES, pH 8.0, 137 mM NaCl, 2.7 mM KCl, 1 mM MgCl2 and the substrate is Boc-Lys(Ac)-AMC in a 50 mM stock solution in DMSO. The enzyme stock solution is 4.08 μg/mL in buffer.
The compounds are pre-incubated (2 μl in DMSO diluted to 13 μl in buffer for transfer to assay plate) with enzyme (20 μl of 4.08 μg/mL) for 10 min at room temperature (35 μl pre-incubation volume). The mixture is pre-incubated for 5 min at room temperature. The reaction is started by bringing the temperature to 37° C. and adding 16 μl substrate. Total reaction volume is 50 μl. […] A plate is incubated in the dark for 10 min at room temperature before reading (λEX=360 nm, λEm=470 nm, Cutoff filter at 435 nm).
In the table, “A” indicates inhibitory activity at a concentration of <0.05 μM; “B” indicates inhibitory activity at a concentration >0.05 μM but <0.5 μM, “C” indicates inhibitory activity at >0.5 μM but <2 μM and “D” indicates inhibitory activity at a concentration of >2 μM but <10 μM.

Row | SMILES | IC50 [µM]
1 | CC(C)[C@@H]1Nc2ccc(NC(=O)CCCCCCC(=O)Nc3ccccc3N)cc2NC1=O [Compound 23a, N1-(2-Aminophenyl)-N8—((S)-1,2,3,4-tetrahydro-2-isopropyl-3-oxoquinoxalin-6-yl)octanediamide] | 2 to 10
2 | CC(C)[C@@H]1Nc2ccc(NC(=O)CCCCCCC(=O)NO)cc2NC1=O [Compound 24a, N1—((S)-1,2,3,4-Tetrahydro-2-isopropyl-3-oxoquinoxalin-6-yl)-N8-hydroxyoctanediamide] | 0.05 to 0.5
3 | CC(C)[C@H]1Nc2ccc(NC(=O)CCCCCCC(=O)NO)cc2NC1=O [Compound 24e, N1—((R)-1,2,3,4-Tetrahydro-2-isopropyl-3-oxoquinoxalin-6-yl)-N8-hydroxyoctanediamide] | < 0.05
4 | O=C(CCCCCCC(=O)Nc1ccc2c(c1)NC(=O)[C@@H](Cc1c[nH]c3ccccc13)N2)NO [Compound 24f, N1—((R)-2-((1H-Indol-3-yl)methyl)-1,2,3,4-tetrahydro-3-oxoquinoxalin-6-yl)-N8-hydroxyoctanediamide] | < 0.05
5 | COc1ccc(CN2c3ccc(NC(=O)CCCCCCC(=O)NO)cc3NC(=O)[C@H]2C(C)C)cc1 [Compound 26e, N1—((R)-1-(4-Methoxybenzyl)-1,2,3,4-tetrahydro-2-isopropyl-3-oxoquinoxalin-6-yl)-N8-hydroxyoctanediamide] | 0.05 to 0.5
6 | CC(C)[C@@H]1Nc2ccc(NC(=O)CCCCCCC(=O)c3ncco3)cc2NC1=O [Compound 29a, N—((S)-1,2,3,4-Tetrahydro-2-isopropyl-3-oxoquinoxalin-6-yl)-8-(oxazol-2-yl)-8-oxooctanamide] | 0.05 to 0.5
7 | COc1ccc(CN2c3ccccc3NC(=O)[C@H]2CCC(=O)CCC(=O)NO)cc1 [Compound 43, 6-((R)-1-(4-methoxybenzyl)-1,2,3,4-tetrahydro-3-oxoquinoxalin-2-yl)-N-hydroxy-4-oxy-hexanamide] | 2 to 10
8 | COc1ccc(CN2c3ccccc3NC(=O)C2CCCCCC(=O)NO)cc1 (stereo not drawn) [Compound 47a, 6-(1-(4-methoxybenzyl)-1,2,3,4-tetrahydro-3-oxoquinoxalin-2-yl)-N-hydroxyhexanamide] | 0.05 to 0.5
9 | COc1ccc(CN2c3ccccc3NC(=O)C2CCCCCC(=O)Nc2ccccc2N)cc1 (stereo not drawn) [Compound 47b, 6-(1-(4-methoxybenzyl)-1,2,3,4-tetrahydro-3-oxoquinoxalin-2-yl)-N-(2-aminophenyl)hexanamide] | 2 to 10
10 | COc1ccc(CN2c3ccccc3NC(=O)C2CCCCCC(=O)Nc2cc(-c3cccs3)ccc2N)cc1 (stereo not drawn) [Compound 49, 6-(1-(4-methoxybenzyl)-1,2,3,4-tetrahydro-3-oxoquinoxalin-2-yl)-N-(2-amino-5-(thiophen-2-yl)phenyl)hexanamide] | 0.05 to 0.5
11 | O=C(NO)c1ccc(CN2c3ccccc3NC(=O)[C@@H]2Cc2cccs2)cc1 [Compound 54a1, 4-(((S)-2,3-Dihydro-2-oxo-3-((thiophen-2-yl)methyl)quinoxalin-4(1H)-yl)methyl)-N-hydroxybenzamide] | 0.05 to 0.5
12 | O=C(NO)c1ccc(CN2c3ccccc3NC(=O)[C@H]2Cc2cccs2)cc1 [Compound 54a2, 4-(((R)-2,3-Dihydro-2-oxo-3-((thiophen-2-yl)methyl)quinoxalin-4(1H)-yl)methyl)-N-hydroxybenzamide] | < 0.05
13 | O=C1CN(Cc2ccc(C(=O)NO)cc2)c2ccccc2N1 [Compound 54b1, N-hydroxy-4-((3-oxo-3,4-dihydroquinoxalin-1(2H)-yl)methyl)-benzamide] | < 0.05
14 | O=C(NO)c1ccc(CN2c3ccccc3NC(=O)[C@H]2Cc2c[nH]c3ccccc23)cc1 [Compound 54b2, (R)-4-((2-((1H-indol-3-yl)methyl)-3-oxo-3,4-dihydroquinoxalin-1(2H)-yl)methyl)-N-hydroxybenzamide] | < 0.05
15 | O=C(NO)c1ccc(CN2c3ccccc3NC(=O)[C@@H]2Cc2c[nH]c3ccccc23)cc1 [Compound 54b3, (S)-4-((2-((1H-indol-3-yl)methyl)-3-oxo-3,4-dihydroquinoxalin-1(2H)-yl)methyl)-N-hydroxybenzamide] | < 0.05
16 | O=C(NO)c1ccc(CN2c3ccccc3NC(=O)[C@@H]2Cc2ccccc2)cc1 [Compound 54b4, (S)-4-((2-benzyl-3-oxo-3,4-dihydroquinoxalin-1(2H)-yl)methyl)-N-hydroxybenzamide] | < 0.05
17 | O=C(NO)c1ccc(CN2c3ccccc3NC(=O)[C@H]2Cc2ccccc2)cc1 [Compound 54b5, (R)-4-((2-benzyl-3-oxo-3,4-dihydroquinoxalin-1(2H)-yl)methyl)-N-hydroxybenzamide] | < 0.05

Row | SMILES | IC50 [µM]
18 | O=C(NO)c1ccc(CN2c3ccccc3NC(=O)[C@H]2CCc2ccccc2)cc1 [Compound 54b7, (R)—N-hydroxy-4-((3-oxo-2-phenethyl-3,4-dihydroquinoxalin-1(2H)-yl)methyl)benzamide] | < 0.05
19 | O=C(NO)c1ccc(CN2c3ccccc3NC(=O)[C@H]2CC2CCCCC2)cc1 [Compound 54b8, (R)-4-((2-(cyclohexylmethyl)-3-oxo-3,4-dihydroquinoxalin-1(2H)-yl)methyl)-N-hydroxybenzamide] | 0.05 to 0.5
20 | CC(C)(C)OC(=O)NCCCC[C@@H]1C(=O)Nc2ccccc2N1Cc1ccc(C(=O)NO)cc1 [Compound 54b9, (R)-tert-butyl 4-(1-(4-(hydroxycarbamoyl)benzyl)-3-oxo-1,2,3,4-tetrahydroquinoxalin-2-yl)butylcarbamate] | < 0.05
21 | O=C(NO)c1ccc(CN2c3ccccc3NC(=O)[C@H]2Cc2ccc3ccccc3c2)cc1 [Compound 54b10, (R)—N-hydroxy-4-((2-(naphthalen-2-ylmethyl)-3-oxo-3,4-dihydroquinoxalin-1(2H)-yl)methyl)benzamide] | < 0.05
22 | CC(C)(C)Oc1ccc(C[C@@H]2C(=O)Nc3ccccc3N2Cc2ccc(C(=O)NO)cc2)cc1 [Compound 54b11, (R)-4-((2-(4-tert-butoxybenzyl)-3-oxo-3,4-dihydroquinoxalin-1(2H)-yl)methyl)-N-hydroxybenzamide] | < 0.05
23 | CC(C)(C)OC(=O)CC[C@@H]1C(=O)Nc2ccccc2N1Cc1ccc(C(=O)NO)cc1 [Compound 54b12, (R)-tert-butyl 3-(1-(4-(hydroxycarbamoyl)benzyl)-3-oxo-1,2,3,4-tetrahydroquinoxalin-2-yl)propanoate] | < 0.05
24 | O=C(NO)c1ccc(CN2c3ccccc3NC(=O)[C@H]2Cc2csc3ccccc23)cc1 [Compound 54b13, (R)-4-((2-(benzo[b]thiophen-3-ylmethyl)-3-oxo-3,4-dihydroquinoxalin-1(2H)-yl)methyl)-N-hydroxybenzamide] | < 0.05
25 | O=C(NO)c1ccc(CN2c3ccccc3NC(=O)[C@@H]2Cc2csc3ccccc23)cc1 [Compound 54b14, (S)-4-((2-(benzo[b]thiophen-3-ylmethyl)-3-oxo-3,4-dihydroquinoxalin-1(2H)-yl)methyl)-N-hydroxybenzamide] | 0.05 to 0.5
26 | O=C(NO)c1ccc(CN2c3ccccc3NC(=O)[C@H]2Cc2ccc(F)cc2)cc1 [Compound 54b15, (R)-4-((2-(4-fluorobenzyl)-3-oxo-3,4-dihydroquinoxalin-1(2H)-yl)methyl)-N-hydroxybenzamide] | < 0.05
27 | O=C(NO)c1ccc(CN2c3ccccc3NC(=O)[C@H]2Cc2ccc(C(F)(F)F)cc2)cc1 [Compound 54b17, (R)-4-((2-(4-trifluoromethylbenzyl)-3-oxo-3,4-dihydroquinoxalin-1(2H)-yl)methyl)-N-hydroxybenzamide] | 0.05 to 0.5
28 | O=C(NO)c1ccc(CN2c3ccccc3NC(=O)[C@H]2Cc2cccc(C(F)(F)F)c2)cc1 [Compound 54b19, (R)—N-hydroxy-4-((2-(3-(trifluoromethyl)benzyl)-3-oxo-3,4-dihydroquinoxalin-1(2H)-yl)methyl)benzamide] | 0.05 to 0.5
29 | O=C(NO)c1ccc(CN2c3ccccc3NC(=O)[C@H]2Cc2ccoc2)cc1 [Compound 54b20, (R)-4-((2-(furan-3-ylmethyl)-3-oxo-3,4-dihydroquinoxalin-1(2H)-yl)methyl)-N-hydroxybenzamide] | < 0.05
30 | O=C(NO)c1ccc(CN2c3ccccc3NC(=O)[C@H]2Cc2cccnc2)cc1 [Compound 54b21, (R)—N-hydroxy-4-((3-oxo-2-(pyridin-3-ylmethyl)-3,4-dihydroquinoxalin-1(2H)-yl)methyl)benzamide] | < 0.05
31 | Nc1ccccc1NC(=O)c1ccc(CN2c3ccccc3NC(=O)[C@@H]2Cc2cccs2)cc1 [Compound 54c, (S)—N-(2-aminophenyl)-4-((3-oxo-2-(thiophen-2-ylmethyl)-3,4-dihydroquinoxalin-1(2H)-yl)methyl)benzamide] | 0.05 to 0.5
32 | O=C(NO)c1ccc(CN2c3ccccc3NC(=O)[C@H]2Cc2cccs2)cc1 [Compound 56a, 4-(((R)-2,3-Dihydro-2-oxo-3-((thiophen-2-yl)methyl)quinoxalin-4(1H)-yl)methyl)-N-hydroxybenzamide] | 0.5 to 2
33 | Nc1ccc(-c2cccs2)cc1NC(=O)c1ccc(-c2ccc3c(c2)NC(=O)[C@H](Cc2c[nH]c4ccccc24)N3)cc1 [Compound 62, 4-((S)-2-((1H-indol-3-yl)methyl)-1,2,3,4-tetrahydro-3-oxoquinoxalin-6-yl)-N-(2-amino-5-(thiophen-2-yl)phenyl)benzamide] | 0.05 to 0.5
